Blank lines part the entries; values can stand above or below the molecule they belong to.
Key:
[1] = Inclusion efficiency for gemcitabine in VPG; type: physicochemical; conditions: for Inclusion efficiency: then passive loading 60° C. 2 hours
Description: (§1) Within the context of the present invention, the “enclosure efficiency” is the ratio (percentage) of the amount of the measured substance (e.g., of an active substance) which is included in the lipid-based nanoparticles, associated to the nanoparticles or incorporated into the nanoparticles, to the total amount of the respective substance used for the formulation.
Into a 25 ml injection bottle (outer diameter: 36 mm), 1.48 g of the mixture of hydrogenated egg phosphatidylcholine and cholesterol (55/45 mole %) existing as a solid solution as well as 3 g of glass beads (diameter 1 mm) was weighed under sterile conditions. The bottle was flange-sealed. Through the septum, 500 μl of a Gemzar® solution (containing 38.02 mg of gemcitabine/ml; Gemzar® is the name of the gemcitabine-containing medicament of the company Lilly, one injection bottle contains 200 mg of gemcitabine (lyophilized) and is reconstituted with 5 ml of 0.9% NaCl) as well as 2.22 g of 5% mannitol solution was added. The mixture was subjected to speed mixing at 3540 rpm for 20 minutes to form gemcitabine-containing VPG.
Into a 25 ml injection bottle, 3.7 g of VPG (660 mM lipid, mixture of hydrogenated egg phosphatidylcholine and cholesterol (55/45 mole %), existing as a solid solution) was charged, and the bottle was centrifuged briefly, so that a uniformly thick layer of VPG formed at the bottom of the vessel. To this layer, 500 μl of a Gemzar® solution was added (contains 38.02 mg of gemcitabine/ml; Gemzar® is the name of the gemcitabine-containing medicament of the company Lilly, one injection bottle contains 200 mg of gemcitabine (lyophilized) and is reconstituted with 5.0 ml of 0.9% NaCl). […]
Subsequently, the VPG-gemcitabine mixture as well as a comparative sample in which gemcitabine was incorporated into the VPG by two shaking steps for 10 and 5 minutes, respectively, with an incubation break for 1 hour between, incubated at 60° C. for 2 hours for passive loading, the VPG was subsequently redispersed, and the inclusion efficiency for gemcitabine was determined.

[2] = empty VPG by high-pressure homogenization, gemcitabine incorporated by passive loading (EP 1 087 752); cited from earlier work
[3] = Mean size of liposomes / lipid-based nanoparticles by photon correlation spectroscopy (PCS); type: physicochemical
[4] = Inclusion efficiency for RNA-Cy3 in liposomes (fluorescence spectroscopy of supernatant); type: physicochemical; conditions: 1 μM RNA-Cy3, 3540 rpm 10 min
Description: as §1
Into two glass vials (diameter 10 mm), 100 mg each of glass beads (diameter 1 mm) and 50 mg each of the mixture of hydrogenated egg phosphatidylcholine and cholesterol (55/45 mole %) existing as a solid solution was weighed. Into one vial, 75 μl of a 1 μM RNA-Cy3 solution (RNA: 27mer; 5′-GGA GCU CGC U T**C GGC GAG GUC GUG CCA-3′; T**=thymidine-C6-amino-NHS-Cy3; Cy3: fluorescence dye; Qiagen) was pipetted. Into the second vial, 75 μl of NaCl solution was added. The closed vials were subjected to speed mixing at 3540 rpm for 10 minutes each. The liposome gel loaded with RNA-Cy3 solution was redispersed with 250 μl of NaCl solution. […] In the supernatant, the relative concentrations of fluorescence-labeled RNA were subsequently determined by fluorescence spectroscopy (em: 565, ex; 515 nm), and the inclusion efficiency for RNA-Cy3 was calculated by dividing the values by one another (60.1%). The mean size of the redispersed vesicles was determined by means of PCS to be 127.8 nm. […]

[5] = Inclusion efficiency for bendamustine in VPG (ion exchanger separation of free drug); type: physicochemical; conditions: direct inclusion in VPG by speed mixing, 3540 rpm 30 min; ± SD
Description: as §1
Into a 25 ml injection bottle (outer diameter: 36 mm), 1.0 g of the mixture of hydrogenated egg phosphatidylcholine and cholesterol (55/45 mole %) existing as a solid solution as well as 1.0 g of glass beads (diameter 1 mm) was weighed under sterile conditions. The bottle was flange-sealed. Through the septum, 1.5 ml of a Bendamustin® hydrochloride solution (containing 9.09 mg of bendamustine/ml; the solution was prepared by reconstitution from Bendamustin of Ribosepharm; thus, 0.9% NaCl solution was injected into the medicine bottle with the lyophilized medicament) was added. […] Samples of the VPGs containing bendamustine were taken, and the inclusion efficiency for bendamustine was determined to be 40.6±3.08% (SD) (separation of the free bendamustine: by ion exchanger, Moog et al., Cancer Chem Pharmacol 49: 356 (2002), bendamustine analytics: Maas, B. et al., Pharmazie 49: 775-777 (1994)). The mean size of the vesicles was determined by PCS to be 62.5±3.5 nm (SD) (n: 8).

[6] = Inclusion efficiency for trypan blue in liposomes (absorption spectroscopy of supernatant); type: physicochemical; conditions: EPC3/cholesterol 55/45; 3540 rpm 10 min
Description: Within the context of the present invention, the “enclosure efficiency” is the ratio (percentage) of the amount of the measured substance (e.g., of an active substance) which is included in the lipid-based nanoparticles, associated to the nanoparticles or incorporated into the nanoparticles, to the total amount of the respective substance used for the formulation. Into two glass vials (diameter 10 mm), 100 mg each of glass beads (diameter 1 mm) and 50 mg each of the mixture of hydrogenated egg phosphatidylcholine and cholesterol (55/45 mole %) existing as a solid solution was weighed. Into one vial, 75 μl of a trypan blue solution (1000 μl of commercially available trypan blue solution (0.4%) plus 30 ml of 25% ammonia solution) was pipetted. Into the second vial, 75 μl of 0.9% NaCl solution was added. The closed vials were subjected to speed mixing at 3540 rpm for 10 minutes each. The liposome gel loaded with trypan blue solution was redispersed with 250 μl of NaCl solution. The liposome gel prepared with saline only was redispersed with 175 μl of NaCl solution plus 75 μl of trypan blue solution. […] In the supernatant, the trypan blue concentration was subsequently determined by absorption spectroscopy, and the inclusion efficiency was calculated. […]

- inclusion efficiency for gemcitabine ([1]; direct inclusion in VPG by speed mixing, 3540 rpm 20 min): 80.7%
- Inclusion efficiency ([1]; gemcitabine incorporated into prefabricated VPG by shaking (10 and 5 min)): 47%
- Inclusion efficiency ([1]; gemcitabine incorporated into prefabricated VPG by speed mixing (0.5 min)): 44%
Molecule: Nc1ccn([C@@H]2O[C@H](CO)[C@@H](O)C2(F)F)c(=O)n1 [gemcitabine]
- inclusion efficiency for passive loading [2]: 43-47%

Molecule: RNA-Cy3: fluorescence-labeled RNA 27mer 5′-GGA GCU CGC U T**C GGC GAG GUC GUG CCA-3′, T**=thymidine-C6-amino-NHS-Cy3 (Qiagen) (chain 1 GGAGCUCGCUT; chain 2 CGGCGAGGUCGUGCCA; Cy3 label on thymidine-C6-amino, chemistry not fully specified)
- mean size of the redispersed vesicles ([3]; RNA-Cy3-loaded negatively charged liposomes (hydrogenated egg PC/cholesterol/DPPG 46/33/20)): 238.1 nm
- mean size of the redispersed vesicles ([3]; RNA-Cy3-loaded neutral liposomes (hydrogenated egg PC/cholesterol 55/45)): 127.8 nm
- inclusion efficiency for RNA-Cy3 ([4]; negatively charged liposomes (hydrogenated egg PC/cholesterol/DPPG 46/33/20)): 82.9%
- inclusion efficiency for RNA-Cy3 ([4]; neutral liposomes (hydrogenated egg PC/cholesterol 55/45)): 60.1%

Molecule: Cn1c(CCCC(=O)O)nc2cc(N(CCCl)CCCl)ccc21 [bendamustine]
- inclusion efficiency for bendamustine [5]: 40.6±3.08%

- inclusion efficiency for trypan blue in liposomes by speed mixing [6]: 51%
Molecule: Cc1cc(-c2ccc(/N=N/c3c(S(=O)(=O)O)cc4cc(S(=O)(=O)O)cc(N)c4c3O)c(C)c2)ccc1/N=N/c1c(S(=O)(=O)O)cc2cc(S(=O)(=O)O)cc(N)c2c1O [trypan blue]
